pIC50: −log10 of the molar value.
molecular target: T1, GST-YTHDC1 (345-509) protein (Homo sapiens, UniProt Q96MU7); experiment: Fluorescence polarization-based in vitro enzyme-level test against YTHDC1; assay type: binding; conditions: 30 nM GST-YTHDC1 (345-509), FAM-labeled m6A-modified single-stranded oligonucleotide, 18° C., 4 hours; read-out: IC50 (Inhibitory Activity against YTHDC1)
T1 construct: GST-YTHDC1 (345-509) protein

SMILES	pIC50
CN1CCN(c2ncc(-c3ccc(NC(=O)c4cc(C(=O)c5ccccc5Br)c[nH]4)cc3)o2)CC1 [Compound 80]	6.46
O=C(Nc1ccc(-c2cnc(N3CCNCC3)o2)cc1)c1cc(C(=O)c2ccccc2C(F)(F)F)c[nH]1 [Compound 81]	7.21
CC(C)(C)OC(=O)N1CCN2c3ccc(NC(=O)c4cc(C(=O)c5ccccc5C(F)(F)F)c[nH]4)cc3OCC2C1 (stereo not shown) [Compound 82]	6.90
O=C(Nc1ccc2c(c1)OCc1ccccc1-2)c1cc(C(=O)c2ccccc2C(F)(F)F)c[nH]1 [Compound 83]	7.01
CC(C)(C)OC(=O)N1CCN(c2ncc(-c3ccc(NC(=O)c4cc(C(=O)C5C=CC=CC5Br)c[nH]4)cc3)o2)CC1 (stereo not shown) [Compound 84]	< 4.30
O=C(Nc1ccc(-c2cnc(N3CCN(C4COC4)CC3)o2)cc1)c1cc(C(=O)c2ccccc2Br)c[nH]1 [Compound 85]	6.63
O=C(Nc1ccc(-c2cnc(N3CCN(CCO)CC3)o2)cc1)c1cc(C(=O)c2ccccc2Br)c[nH]1 [Compound 86]	6.07
O=C(Nc1ccc(-c2cnc(N3CCN(S(=O)(=O)C4CC4)CC3)o2)cc1)c1cc(C(=O)C2C=CC=CC2Br)c[nH]1 (stereo not shown) [Compound 87]	5.64
O=C(Nc1ccc(-c2cnc(N3CCN(C4COC4)CC3)o2)cc1)c1cc(C(=O)c2ccccc2C(F)(F)F)c[nH]1 [Compound 88]	7.15
O=C(Nc1ccc(-c2cnc(N3CCN(S(=O)(=O)Cc4ccccc4)CC3)o2)cc1)c1cc(C(=O)C2C=CC=CC2C(F)(F)F)c[nH]1 (stereo not shown) [Compound 89]	< 4.30
COc1cc(NC(=O)c2cc(C(=O)c3ccccc3C(F)(F)F)c[nH]2)ccc1-c1cnco1 [Compound 90]	8.43
O=C(Nc1ccc2c(c1)OCC1CNCCN21)c1cc(C(=O)c2ccccc2C(F)(F)F)c[nH]1 (stereo not shown) [Compound 91]	6.03
CN1CCN2c3ccc(NC(=O)c4cc(C(=O)c5ccccc5C(F)(F)F)c[nH]4)cc3OCC2C1 (stereo not shown) [Compound 92]	6.39
O=C(Nc1ccc(-c2cnco2)c(F)c1)c1cc(C(=O)c2ccccc2C(F)(F)F)c[nH]1 [Compound 93]	8.05
O=C(Nc1ccc(-c2ocnc2CO)cc1)c1cc(C(=O)c2ccccc2C(F)(F)F)c[nH]1 [Compound 94]	6.95
Cc1cc(-c2cnco2)ccc1NC(=O)c1cc(C(=O)c2ccccc2C(F)(F)F)c[nH]1 [Compound 95]	7.41
COCOc1cc(NC(=O)c2cc(C(=O)c3ccccc3C(F)(F)F)c[nH]2)ccc1-c1cnco1 [Compound 96]	7.84
CN(C)c1cc(NC(=O)c2cc(C(=O)c3ccccc3C(F)(F)F)c[nH]2)ccc1-c1cnco1 [Compound 97]	7.29
CN(C)CCOc1cc(NC(=O)c2cc(C(=O)c3ccccc3C(F)(F)F)c[nH]2)ccc1-c1cnco1 [Compound 98]	7.82
CN(CCO)c1cc(NC(=O)c2cc(C(=O)c3ccccc3C(F)(F)F)c[nH]2)ccc1-c1cnco1 [Compound 99]	6.59
CS(=O)(=O)c1ccc(NC(=O)c2cc(C(=O)c3ccccc3C(F)(F)F)c[nH]2)cc1 [Compound 100]	6.79
CN(C)CCOc1cc(NC(=O)c2cc(C(=O)c3ccccc3C(F)(F)F)c[nH]2)ccc1-c1cnco1 [Compound 101]	7.37
O=C(Nc1ccc(-c2cncnc2)cc1)c1cc(C(=O)c2ccccc2C(F)(F)F)c[nH]1 [Compound 102]	7.07

SMILES	pIC50
CCN(C)c1ncc(-c2ccc(NC(=O)c3cc(C(=O)c4ccccc4C(F)(F)F)c[nH]3)cc2)o1 [Compound 103]	7.85
O=C(Nc1ccc(-c2cnc(N3CCC3)o2)cc1)c1cc(C(=O)c2ccccc2C(F)(F)F)c[nH]1 [Compound 104]	8.05
O=C(Nc1ccc(-c2cnco2)cc1)c1cc(C(=O)c2ccccc2C(F)(F)F)c[nH]1 [Compound 105]	8.01
O=C(Nc1ccc(-c2ccc(N3CCCC3)cc2)cc1)c1cc(C(=O)c2ccccc2C(F)(F)F)c[nH]1 [Compound 106]	5.75
CN1C(=O)Cc2cc(-c3ccc(NC(=O)C4=CC(C(=O)c5ccccc5C(F)(F)F)CN4)cc3)ccc21 (stereo not shown) [Compound 107]	7.66
COC(=O)c1cccc(-c2ccc(NC(=O)c3cc(C(=O)c4ccccc4C(F)(F)F)c[nH]3)cc2)c1 [Compound 108]	6.74
CN1CCN(c2ccc(-c3ccc(NC(=O)c4cc(C(=O)c5ccccc5C(F)(F)F)c[nH]4)cc3)cc2)CC1 [Compound 109]	7.36
CN(C)c1ccccc1-c1ccc(NC(=O)c2cc(C(=O)c3ccccc3C(F)(F)F)c[nH]2)cc1 [Compound 110]	6.38
O=C(Nc1ccccc1)c1ccc(NC(=O)c2cc(C(=O)c3ccccc3C(F)(F)F)c[nH]2)cc1 [Compound 111]	6.44
O=C(Nc1ccc(C(F)(F)F)cc1[N+](=O)[O-])c1cc(C(=O)c2ccccc2C(F)(F)F)c[nH]1 [Compound 112]	≤ 4.30
O=C(Nc1ccc(C(F)(F)F)c(F)c1)c1cc(C(=O)c2ccccc2C(F)(F)F)c[nH]1 [Compound 113]	7.27
COc1cc(NC(=O)c2cc(C(=O)c3ccccc3C(F)(F)F)c[nH]2)ccc1C(F)(F)F [Compound 114]	7.80
O=C(Nc1cccc(C(F)(F)F)c1)c1cc(C(=O)c2ccccc2C(F)(F)F)c[nH]1 [Compound 115]	5.58
CC(C)(C)OC(=O)Nc1ccc(-c2ccc(NC(=O)c3cc(C(=O)c4ccccc4C(F)(F)F)c[nH]3)cc2)cc1 [Compound 116]	≤ 4.30
COC(=O)c1cc(C(F)(F)F)ccc1NC(=O)c1cc(C(=O)c2ccccc2C(F)(F)F)c[nH]1 [Compound 117]	≤ 4.30
O=C(Nc1ccc(-c2cnco2)cc1)c1cc(C(=O)c2ccccc2N2CCSCC2)c[nH]1 [Compound 118]	7.92
O=C(Nc1ccc(Cc2ccccc2)cc1)c1cc(C(=O)c2ccccc2C(F)(F)F)c[nH]1 [Compound 119]	4.85
O=C(Nc1ccc(C(=O)N2CCC3(CC2)OCc2ccccc23)cc1)c1cc(C(=O)c2ccccc2C(F)(F)F)c[nH]1 [Compound 120]	≤ 4.30
O=C(Nc1ccc(-c2cnco2)cc1)c1cc(C(=O)c2ccccc2N2CCCC2=O)c[nH]1 [Compound 121]	7.60
O=C(Nc1ccc(S(=O)(=O)Nc2ccccc2)cc1)c1cc(C(=O)c2ccccc2C(F)(F)F)c[nH]1 [Compound 123]	6.93
CC(C)(C)OC(=O)N1CCc2cc(-c3ccc(NC(=O)c4cc(C(=O)c5ccccc5C(F)(F)F)c[nH]4)cc3)ccc21 [Compound 124]	≤ 4.30
CC1CCN(c2ccccc2C(=O)c2c[nH]c(C(=O)Nc3ccc(-c4cnco4)cc3)c2)CC1 [Compound 125]	7.89
O=C1CC2C=C(c3ccc(NC(=O)c4cc(C(=O)c5ccccc5C(F)(F)F)c[nH]4)cc3)C=CC2N1 (stereo not shown) [Compound 126]	7.89

SMILES	pIC50
CCN(C)c1ccccc1C(=O)c1c[nH]c(C(=O)Nc2ccc(-c3cnco3)cc2)c1 [Compound 127]	7.89
O=C(Nc1ccc(-c2cnco2)cc1)c1cc(C(=O)c2ccccc2N2CCCC2)c[nH]1 [Compound 128]	7.64
CC(C)(C)OC(=O)n1cc(-c2ccc(NC(=O)c3cc(C(=O)c4ccccc4C(F)(F)F)c[nH]3)cc2)c2ccccc21 [Compound 129]	4.51
COc1ccc(CNc2ccccc2C(=O)c2c[nH]c(C(=O)Nc3ccc(-c4cnco4)cc3)c2)cc1 [Compound 130]	≤ 4.30
COC1CN(c2ccccc2C(=O)c2c[nH]c(C(=O)Nc3ccc(-c4cnco4)cc3)c2)C1 [Compound 131]	7.46
O=C(Nc1ccc(-c2cnco2)cc1)c1cc(C(=O)c2ccccc2N2CCCCC2)c[nH]1 [Compound 132]	7.85
O=C(Nc1ccc2c(c1)CCN2c1ccccc1)c1cc(C(=O)c2ccccc2C(F)(F)F)c[nH]1 [Compound 133]	6.13
O=C(Nc1ccc(-c2cnco2)cc1)c1cc(C(=O)c2ccccc2N2CC3CCC2CO3)c[nH]1 (stereo not shown) [Compound 134]	7.00
CCN1CCN(c2ccccc2C(=O)c2c[nH]c(C(=O)Nc3ccc(-c4cnco4)cc3)c2)CC1 [Compound 135]	5.55
O=C(Nc1ccc(-c2cnco2)cc1)c1cc(C(=O)c2ccccc2N2CCOC2=O)c[nH]1 [Compound 136]	7.55
O=C(Nc1ccc(-c2cnco2)cc1)c1cc(C(=O)c2ccccc2N2CCC(F)C2)c[nH]1 (stereo not shown) [Compound 137]	7.96
O=C(Nc1ccc(-c2cnco2)cc1)c1cc(C(=O)c2ccccc2N2CCOCC2)c[nH]1 [Compound 138]	7.70
CN1CCN(c2ccccc2C(=O)c2c[nH]c(C(=O)Nc3ccc(-c4cnco4)cc3)c2)CC1 [Compound 139]	5.98
O=C(Nc1ccc(-c2cnco2)cc1)c1cc(C(=O)c2ccccc2N2CCCCCC2)c[nH]1 [Compound 140]	6.87
O=C(Nc1ccc(-c2cnco2)cc1)c1cc(C(=O)c2ccccc2N2CCCCCCC2)c[nH]1 [Compound 141]	6.72
O=C(Nc1ccc(-c2cnco2)cc1)c1cc(C(=O)c2ccccc2C2=CCCC2)c[nH]1 [Compound 142]	7.60
O=C(Nc1ccc(-c2cnco2)cc1)c1cc(C(=O)c2ccccc2CCCCO)c[nH]1 [Compound 143]	8.05
O=C(Nc1ccc(-c2cnco2)cc1)c1cc(C(=O)c2ccccc2N2CC3(CCC3)C2)c[nH]1 [Compound 144]	7.32
O=C(Nc1ccc(-c2cnco2)cc1)c1cc(C(=O)c2ccccc2C2=COCC2)c[nH]1 [Compound 145]	7.41
O=C(Nc1ccc(-c2cnco2)cc1)c1cc(C(=O)c2ccccc2C2CCCC2)c[nH]1 [Compound 146]	7.68
C[C@@H]1CN(c2ccccc2C(=O)c2c[nH]c(C(=O)Nc3ccc(-c4cnco4)cc3)c2)C[C@H](C)O1 [Compound 147]	6.72
C[C@H]1CN(c2ccccc2C(=O)c2c[nH]c(C(=O)Nc3ccc(-c4cnco4)cc3)c2)CCO1 [Compound 148]	7.18
C[C@H]1CN(c2ccccc2C(=O)c2c[nH]c(C(=O)Nc3ccc(-c4cnco4)cc3)c2)C[C@H](C)O1 [Compound 149]	7.39

same assay, conditions: read-out: IC50 (Inhibitory Activity against YTHDC1)

SMILES	pIC50
C[Si]1(C)CCN(c2ccccc2C(=O)c2c[nH]c(C(=O)Nc3ccc(-c4cnco4)cc3)c2)CC1 [Compound 122]	7.08
